How the values were obtained:
[1] = system: cerebellar granule neurones; test: Assay 3: intracellular cyclic AMP enzyme immunoassay; type: cell-based, rat; conditions: agonist 0 to 30 nM, 15 min, 0.5 mM IBMX
Protocol: Assay 3: The production of cAMP by the CRF receptor agonist peptides CRF, urotensin 1, urocortin and sauvagine was measured as follows. This assay can be used analogously for any putative CRF receptor agonists including non-peptide agonists.
Intracellular cyclic AMP was measured with a cAMP 2-site enzyme immunoassay system (trade mark BIOTRAK, commercially available from Amersham Pharmacia Biotech, PO Box 164, Rainham, Essex RM13 8JZ, United Kingdom, Amersham catalogue number RPN225), based upon the use of a sensitive and highly specific capture antibody for cyclic AMP:
Cerebellar granule neurones were seeded in polylysine-coated […] plates, 3.5×10^5 cells per 48-well, in Basal medium Eagle's containing 10% fetal calf serum, 25 mM KCl, and antibiotics. At 8-9 days in vitro, granule neurone cultures were shifted to serum-free plating medium (0.4 ml) with 0.5 mM IBMX (to inhibit the breakdown of cyclic AMP) for 15 min (37° C.). Wells then received 0.1 ml of test peptide (5× final concentration). Generally 1 μM is the preferable final concentration for a putative CRF agonist under test, though different (e.g. lower) concentrations can be used as shown for the peptide agonists in FIG. 3. Incubation was continued for 15 min. Test medium was removed and the plate placed on dry ice, and stored at −140° C. Cyclic AMP analysis was performed the following day.
Cells were then lysed with the reagent provided with the BIOTRAK kit. Intracellular content of cyclic AMP in the lysates was assayed following the manufacturer's instructions. A standard curve was constructed using the cyclic AMP calibration provided, with the quantity of bound cyclic AMP being inversely proportional to the amount of second (chromogenic) antibody bound to the reaction wells. The colour product was read with an ELISA plate reader, and was a function of the amount of cyclic AMP in the unknown sample.

[2] = system: GSK-3β; test: Western blot of serine-9-phosphorylated GSK-3β (FIG. 5); type: cell-based, rat; conditions: compound alone, 2 hours; CRF 10 nM, LY 294002 75 μM, FSK 30 μM
Description: It was thought that CRF receptor agonists might interact with the PI 3-kinase signalling pathway and exert their neuroprotective effect by phosphorylating and inhibiting the protein GSK-3β,which is pro-apoptotic (M. Pap and G. M. Cooper, J. Biol. Chem., 273(32), 19929-19932, 1998; and M. Hetman et al. J. Neurosci., 1st Apr. 2000, 20(7), 2567-2574; discussed hereinabove). In order to confirm this, the level of GSK-3β phosphorylated at serine-9 (e.g. see D. A. E. Cross, Nature, 378, 785-789, 1995) in control cultures of cerebellar granule neurones was measured using Western blots, and compared to the level of phospho-GSK-3β in the presence of CRF as a model CRF receptor agonist and/or in the presence of the PI 3-kinase inhibitor LY 294002. In order to determine whether elevation of cAMP was involved in any effect, the level of phospho-GSK-3β in cultures in the presence of the known cAMP-elevating agent forskolin (FSK, obtainable e.g. from Calbiochem.) with or without LY 294002 present was also measured. The forskolin acts as a benchmark for cAMP-related effects.
The method used was as follows. […]
Phosphorylation of GSK-3β was detected using an antibody to serine-9-phosphorylated GSK-3β (anti-phospho-GSK-3β (Ser9)) available as catalogue no. […]

H-SQEPPISLDLTFHLLREVLEMTKADQLAQQAHNNRKLLDIA-NH2 [CRF]
cAMP synthesis induced by agonist (FIG. 3) [1]: cAMP production increased with agonist concentration
phospho-GSK-3β level compared to control CN [2]: increase in basal phospho-GSK-3β

Reference: patent publication US20080113908A1, “Use of CRF receptor agonists for the treatment or Prophylaxis of diseases, for example Neurodegenerative diseases” (SmithKline Beecham plc, priority 2000, published 2008)
